From patent publication US9067977B2, “Peptides derivatized with A-B-C-D- and their therapeutical use” (Novo Nordisk A/S, priority 2007, dated 2015)
Starred links: 1 amine or outer side, 2 acyl side, 3 side chain; linkers in the order of their positions; H or OH if unused. Non-standard residues stand in square brackets, D forms with d. Residues, ends and D or L forms follow the SMILES beside them. Groups on a side chain read outwards from the residue. *: point of attachment. C20 diacid = O=C(O)CCCCCCCCCCCCCCCCCCC(=O)*; C18 diacid = O=C(O)CCCCCCCCCCCCCCCCC(=O)*; d(βAsp) = O=C(O)[C@@H](CC(=O)[*:2])N[*:1]; γGlu = O=C(O)[C@H](CCC(=O)[*:2])N[*:1]; Desaminohistidyl = O=C(CCc1c[nH]cn1)*; AEEA = NCCOCCOCC(=O)O; Aib = CC(C)(N)C(=O)O; Inp = O=C(O)C1CCNCC1; Bn = c1ccc(C*)cc1

Target: human serum albumin (HSA) (Homo sapiens, UniProt P02768)
Sequence (P02768 25-609): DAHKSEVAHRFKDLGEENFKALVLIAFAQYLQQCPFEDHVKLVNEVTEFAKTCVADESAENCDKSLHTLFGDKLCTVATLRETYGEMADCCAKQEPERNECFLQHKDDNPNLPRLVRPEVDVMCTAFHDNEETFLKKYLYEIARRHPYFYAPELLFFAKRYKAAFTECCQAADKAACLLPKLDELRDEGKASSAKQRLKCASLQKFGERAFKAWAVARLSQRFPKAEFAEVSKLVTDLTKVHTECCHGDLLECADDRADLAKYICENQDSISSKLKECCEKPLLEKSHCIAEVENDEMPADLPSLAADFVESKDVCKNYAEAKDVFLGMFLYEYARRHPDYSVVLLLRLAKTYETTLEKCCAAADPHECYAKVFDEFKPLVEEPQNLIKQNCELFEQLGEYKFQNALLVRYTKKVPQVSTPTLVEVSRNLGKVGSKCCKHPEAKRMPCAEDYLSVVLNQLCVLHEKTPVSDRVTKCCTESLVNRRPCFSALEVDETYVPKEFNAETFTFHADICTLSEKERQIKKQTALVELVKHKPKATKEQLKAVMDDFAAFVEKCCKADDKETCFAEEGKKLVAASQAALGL
Test: Albumin binding affinity, competition scintillation proximity assay
Experimental: Streptavidin-SPA beads (GE Healthcare RPNQ0009) were incubated with biotinylated HSA for 5 hours. The beads were washed with buffer to remove unbound HSA. […] After 20 hours of gentle rocking at room temperature the plates were centrifuged and counted on a TopCounter.

| EC50 | EC50 at 20 h (human, biotinylated human serum albumin on streptavidin-SPA beads, pH 7.4) | SMILES |
| --- | --- | --- |
| 300 to 800 nM | – | CC[C@H](C)[C@H](NC(=O)[C@H](Cc1ccccc1)NC(=O)[C@H](CCC(=O)O)NC(=O)[C@H](CCCNC(=N)N)NC(=O)[C@H](C)NC(=O)[C@H](C)NC(=O)[C@H](CCC(N)=O)NC(=O)CNC(=O)[C@H](CCC(=O)O)NC(=O)[C@H](CCCCNC(=O)COCCOCCNC(=O)COCCOCCNC(=O)C[C@@H](NC(=O)C1CCN(C(=O)CCCCCCCCCCCCCCCCC(=O)O)CC1)C(=O)O)NC(=O)[C@H](Cc1ccc(O)cc1)NC(=O)[C@H](CO)NC(=O)[C@H](CO)NC(=O)[C@@H](NC(=O)[C@H](CC(=O)O)NC(=O)[C@H](CO)NC(=O)[C@@H](NC(=O)[C@H](Cc1ccccc1)NC(=O)[C@@H](NC(=O)CNC(=O)[C@H](CCC(=O)O)NC(=O)C(C)(C)NC(=O)[C@@H](N)Cc1c[nH]cn1)[C@@H](C)O)[C@@H](C)O)C(C)C)C(=O)N[C@@H](CCC(=O)O)C(=O)N[C@@H](Cc1c[nH]c2ccccc12)C(=O)N[C@@H](CC(C)C)C(=O)N[C@H](C(=O)N[C@@H](CCCCN)C(=O)NCC(=O)N[C@@H](CCCNC(=N)N)C(=O)NCC(N)=O)[C@@H](C)OCc1ccccc1 [Example 8, N-ε^20({2-[2-(2-{2-[2-((R)-3-carboxy-3-{[1-(17-carboxyheptadecanoyl)piperidine-4-carbonyl]amino}propionylamino)ethoxy]ethoxy}acetylamino)ethoxy]ethoxy}acetyl) [Aib^8,Lys^20,Arg^28,Glu^30,Thr(O-benzyl)^33]GLP-1-(7-37)amide] (H-H[Aib]EGTFTSDVSSYK([AEEA-AEEA-d(βAsp)-Inp-C18 diacid])EGQAAREFIEWLT(Bn)KGRG-NH2; N-terminus assumed) |
| 100 to 150 nM | – | CC[C@H](C)[C@H](NC(=O)[C@H](Cc1ccccc1)NC(=O)[C@H](CCC(=O)O)NC(=O)[C@H](CCCCNC(=O)COCCOCCNC(=O)COCCOCCNC(=O)CC[C@H](NC(=O)C1CCN(C(=O)CCCCCCCCCCCCCCCCCCC(=O)O)CC1)C(=O)O)NC(=O)[C@H](C)NC(=O)[C@H](C)NC(=O)[C@H](CCC(N)=O)NC(=O)[C@H](CCC(=O)O)NC(=O)[C@H](CCC(=O)O)NC(=O)[C@H](CC(C)C)NC(=O)[C@H](Cc1ccc(O)cc1)NC(=O)[C@H](CO)NC(=O)[C@H](CO)NC(=O)[C@@H](NC(=O)[C@H](CC(=O)O)NC(=O)[C@H](CO)NC(=O)[C@@H](NC(=O)[C@H](Cc1ccccc1)NC(=O)[C@@H](NC(=O)CNC(=O)[C@H](CCC(=O)O)NC(=O)C(C)(C)NC(=O)[C@@H](N)Cc1c[nH]cn1)[C@@H](C)O)[C@@H](C)O)C(C)C)C(=O)N[C@@H](C)C(=O)N[C@@H](Cc1c[nH]c2ccccc12)C(=O)N[C@@H](CC(C)C)C(=O)N[C@H](C(=O)N[C@@H](CCC(N)=O)C(=O)NCC(=O)N[C@@H](CCCNC(=N)N)C(=O)NCC(=O)O)C(C)C [Example 69] (H-H[Aib]EGTFTSDVSSYLEEQAAK([AEEA-AEEA-γGlu-Inp-C20 diacid])EFIAWLVQGRG-OH) |
| 150 to 300 nM | – | CC[C@H](C)[C@H](NC(=O)[C@H](Cc1ccccc1)NC(=O)[C@H](CCC(=O)O)NC(=O)[C@H](CCCCNC(=O)COCCOCCNC(=O)CC[C@H](NC(=O)CC[C@H](NC(=O)CCCCCNC(=O)CCCS(=O)(=O)NC(=O)CCCCCCCCCCCCCCCc1nnn[nH]1)C(=O)O)C(=O)O)NC(=O)[C@H](C)NC(=O)[C@H](C)NC(=O)[C@H](CCC(N)=O)NC(=O)CNC(=O)[C@H](CCC(=O)O)NC(=O)[C@H](CC(C)C)NC(=O)[C@H](Cc1ccc(O)cc1)NC(=O)[C@H](CO)NC(=O)[C@H](CO)NC(=O)[C@@H](NC(=O)[C@H](CC(=O)O)NC(=O)[C@H](CO)NC(=O)[C@@H](NC(=O)[C@H](Cc1ccccc1)NC(=O)[C@@H](NC(=O)CNC(=O)[C@H](CCC(=O)O)NC(=O)C(C)(C)NC(=O)[C@@H](N)Cc1c[nH]cn1)[C@@H](C)O)[C@@H](C)O)C(C)C)C(=O)N[C@@H](C)C(=O)N[C@@H](Cc1c[nH]c2ccccc12)C(=O)N[C@@H](CC(C)C)C(=O)N[C@H](C(=O)N[C@@H](CCCNC(=N)N)C(=O)NCC(=O)N[C@@H](CCCNC(=N)N)C(N)=O)C(C)C [Example 41, N-epsilon26-[2-(2-{2-[(S)-4-Carboxy-4-((S)-4-carboxy-4-{6-[4-(16-(1H-tetrazol-5-yl)hexadecanoylsulfamoyl)butyrylamino]hexanoylamino}butyrylamino)butyrylamino]ethoxy}ethoxy)acetyl][Aib8,Arg34]GLP-1-(7-36)amide] |
| 800 to 2000 nM | – | CC[C@H](C)[C@H](NC(=O)[C@H](Cc1ccccc1)NC(=O)[C@H](CCC(=O)O)NC(=O)[C@H](CCCNC(=N)N)NC(=O)[C@H](C)NC(=O)[C@H](C)NC(=O)[C@H](CCC(N)=O)NC(=O)[C@H](CCC(=O)O)NC(=O)[C@H](CCC(=O)O)NC(=O)[C@H](CC(C)C)NC(=O)[C@H](Cc1ccc(O)cc1)NC(=O)[C@H](CO)NC(=O)[C@H](CO)NC(=O)[C@@H](NC(=O)[C@H](CC(=O)O)NC(=O)[C@H](CO)NC(=O)[C@@H](NC(=O)[C@H](Cc1ccccc1)NC(=O)[C@@H](NC(=O)CNC(=O)[C@H](CCC(=O)O)NC(=O)C(C)(C)NC(=O)[C@@H](N)Cc1c[nH]cn1)[C@@H](C)O)[C@@H](C)O)C(C)C)C(=O)N[C@@H](C)C(=O)N[C@@H](Cc1c[nH]c2ccccc12)C(=O)N[C@@H](CC(C)C)C(=O)N[C@H](C(=O)N[C@@H](CCCNC(=N)N)C(=O)NCC(=O)N[C@@H](CCCNC(=N)N)C(=O)N[C@@H](CCCCNC(=O)COCCOCCNC(=O)CC[C@H](NC(=O)CC[C@H](NC(=O)CCCCCCCCCCCNC(=O)CCCS(=O)(=O)NC(=O)CCCCCCCCCCCCCCCc1nnn[nH]1)C(=O)O)C(=O)O)C(N)=O)C(C)C [Example 48, N-epsilon37-[2-(2-{2-[(S)-4-Carboxy-4-((S)-4-carboxy-4-{12-[4-(16-(1H-tetrazol-5-yl)hexadecanoylsulfamoyl)butyrylamino]dodecanoylamino}butyrylamino)butyrylamino]ethoxy}ethoxy)acetyl][Aib8,Glu22,Arg26,Arg34,Lys37]GLP-1-(7-37)amide] |
| 150 to 300 nM | – | CC[C@H](C)[C@H](NC(=O)[C@H](Cc1ccccc1)NC(=O)[C@H](CCC(=O)O)NC(=O)[C@H](CCCNC(=N)N)NC(=O)[C@H](C)NC(=O)[C@H](C)NC(=O)[C@H](CCC(N)=O)NC(=O)[C@H](CCC(=O)O)NC(=O)[C@H](CCC(=O)O)NC(=O)[C@H](CC(C)C)NC(=O)[C@H](Cc1ccc(O)cc1)NC(=O)[C@H](CO)NC(=O)[C@H](CO)NC(=O)[C@@H](NC(=O)[C@H](CC(=O)O)NC(=O)[C@H](CO)NC(=O)[C@@H](NC(=O)[C@H](Cc1ccccc1)NC(=O)[C@@H](NC(=O)CNC(=O)[C@H](CCC(=O)O)NC(=O)C(C)(C)NC(=O)[C@@H](N)Cc1c[nH]cn1)[C@@H](C)O)[C@@H](C)O)C(C)C)C(=O)N[C@@H](CCCCNC(=O)COCCOCCNC(=O)COCCOCCNC(=O)C[C@H](NC(=O)C1CCN(C(=O)CCCCCCCCCCCCCCCCCCC(=O)O)CC1)C(=O)O)C(=O)N[C@@H](Cc1c[nH]c2ccccc12)C(=O)N[C@@H](CC(C)C)C(=O)N[C@H](C(=O)N[C@@H](CCCCN)C(=O)NCC(=O)N[C@@H](CCCNC(=N)N)C(=O)NCC(=O)O)C(C)C [Example 9, N-epsilon30{2-[2-(2-{2-[2-((S)-3-carboxy-3-{[1-(19-carboxynonadecanoyl)piperidine-4-carbonyl]amino}propionylamino)ethoxy]ethoxy}acetylamino)ethoxy]ethoxy}acetyl [Aib8,Glu22,Arg26,Lys30]GLP-1-(7-37)] |
| 300 to 800 nM | – | CC[C@H](C)[C@H](NC(=O)[C@H](Cc1ccccc1)NC(=O)[C@H](CCC(=O)O)NC(=O)[C@H](CCCNC(=N)N)NC(=O)[C@H](C)NC(=O)[C@H](C)NC(=O)[C@H](CCC(N)=O)NC(=O)[C@H](CCC(=O)O)NC(=O)[C@H](CCC(=O)O)NC(=O)[C@H](CC(C)C)NC(=O)[C@H](Cc1ccc(O)cc1)NC(=O)[C@H](CO)NC(=O)[C@H](CO)NC(=O)[C@@H](NC(=O)[C@H](CC(=O)O)NC(=O)[C@H](CO)NC(=O)[C@@H](NC(=O)[C@H](Cc1ccccc1)NC(=O)[C@@H](NC(=O)CNC(=O)[C@H](CCC(=O)O)NC(=O)[C@H](C)NC(=O)CCc1c[nH]cn1)[C@@H](C)O)[C@@H](C)O)C(C)C)C(=O)N[C@@H](C)C(=O)N[C@@H](Cc1c[nH]c2ccccc12)C(=O)N[C@@H](CC(C)C)C(=O)N[C@H](C(=O)N[C@@H](CCCNC(=N)N)C(=O)NCC(=O)N[C@@H](CCCNC(=N)N)C(=O)NCC(=O)N[C@@H](CCCCNC(=O)CC[C@H](NC(=O)C1CCN(C(=O)CCCCCCCCCCCCCCCCCCC(=O)O)CC1)C(=O)O)C(=O)O)C(C)C [Example 62, [DesaminoHis7,Glu22,Arg26,34]-GLP-1 (7-37)-Lys-((S)-4-Carboxy-4-{[1-(19-carboxy-nonadecanoyl)-piperidine-4-carbonyl]-amino}-butyryl) peptide] (Desaminohistidyl-AEGTFTSDVSSYLEEQAAREFIAWLVRGRGK([γGlu-Inp-C20 diacid])-OH) |
| – | 100 to 150 nM | CC[C@H](C)[C@H](NC(=O)[C@H](Cc1ccccc1)NC(=O)[C@H](CCC(=O)O)NC(=O)[C@H](CCCNC(=N)N)NC(=O)[C@H](C)NC(=O)[C@H](C)NC(=O)[C@H](CCC(N)=O)NC(=O)[C@H](CCC(=O)O)NC(=O)[C@H](CCC(=O)O)NC(=O)[C@H](CC(C)C)NC(=O)[C@H](Cc1ccc(O)cc1)NC(=O)[C@H](CO)NC(=O)[C@H](CO)NC(=O)[C@@H](NC(=O)[C@H](CC(=O)O)NC(=O)[C@H](CO)NC(=O)[C@@H](NC(=O)[C@H](Cc1ccccc1)NC(=O)[C@@H](NC(=O)CNC(=O)[C@H](CCC(=O)O)NC(=O)[C@H](C)NC(=O)CCc1c[nH]cn1)[C@@H](C)O)[C@@H](C)O)C(C)C)C(=O)N[C@@H](C)C(=O)N[C@@H](Cc1c[nH]c2ccccc12)C(=O)N[C@@H](CC(C)C)C(=O)N[C@H](C(=O)N[C@@H](CCCNC(=N)N)C(=O)NCC(=O)N[C@@H](CCCNC(=N)N)C(=O)NCC(=O)N[C@@H](CCCCNC(=O)CC[C@H](NC(=O)COCCOCCNC(=O)CC[C@H](NC(=O)C1CCN(C(=O)CCCCCCCCCCCCCCCCCCC(=O)O)CC1)C(=O)O)C(=O)O)C(=O)O)C(C)C [Example 57, [DesaminoHis7,Glu22,Arg26,34]-GLP-1 (7-37)-Lys((S)-4-carboxy-4-(2-{2-[2-((S)-4-carboxy-4-{[1-(19-carboxynonadecanoyl)piperidine-4-carbonyl]amino}butyrylamino)ethoxy]ethoxy}acetylamino)butyryl) peptide] (Desaminohistidyl-AEGTFTSDVSSYLEEQAAREFIAWLVRGRGK([γGlu-AEEA-γGlu-Inp-C20 diacid])-OH) |
